Calls of active or inactive are those of the source.
What was measured:
Protein RecA = molecular target: T1, Protein RecA (Mycobacterium tuberculosis, UniProt P9WHJ3); assay: Fluorescence Cell-Free Homogeneous Dose Retest to Identify Inhibitors of RecA-Intein Splicing Activity. [Related pubchem assays (depositor defined):AID2097, AID2223, AID489010, AID492950]; assay type: functional
T1 sequence (P9WHJ3 whole entry): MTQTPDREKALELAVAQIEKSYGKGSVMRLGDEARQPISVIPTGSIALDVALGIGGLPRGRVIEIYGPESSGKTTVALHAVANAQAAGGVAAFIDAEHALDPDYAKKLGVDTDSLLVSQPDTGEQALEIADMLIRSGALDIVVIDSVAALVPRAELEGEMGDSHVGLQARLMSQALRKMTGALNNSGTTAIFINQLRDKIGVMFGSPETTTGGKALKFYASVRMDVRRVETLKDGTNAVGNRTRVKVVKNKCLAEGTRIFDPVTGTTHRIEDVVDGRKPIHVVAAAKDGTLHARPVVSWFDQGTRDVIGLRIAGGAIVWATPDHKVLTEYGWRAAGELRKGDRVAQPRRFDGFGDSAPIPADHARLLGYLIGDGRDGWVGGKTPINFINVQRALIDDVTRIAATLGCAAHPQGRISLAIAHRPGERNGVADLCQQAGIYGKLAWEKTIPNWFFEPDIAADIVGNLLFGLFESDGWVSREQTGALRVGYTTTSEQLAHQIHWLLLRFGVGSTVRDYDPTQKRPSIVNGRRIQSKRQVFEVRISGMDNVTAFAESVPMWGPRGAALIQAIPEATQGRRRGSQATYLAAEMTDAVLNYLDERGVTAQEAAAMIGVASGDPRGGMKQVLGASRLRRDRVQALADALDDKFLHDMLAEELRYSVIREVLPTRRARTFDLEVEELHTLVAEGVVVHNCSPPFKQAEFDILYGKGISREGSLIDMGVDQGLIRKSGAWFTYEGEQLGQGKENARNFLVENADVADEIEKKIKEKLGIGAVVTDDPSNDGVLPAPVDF

[1] = molecular target: E3 ubiquitin-protein ligase UHRF1 (Homo sapiens, UniProt Q96T88); assay: Counterscreen for inhibitors of 5-meCpG-binding domain protein 2 (MBD2): TRFRET-based biochemical high throughput dose response assay to identify inhibitors of binding of ubiquitin-like with PHD and ring finger domains 1 (UHRF1) to methylated oligonucleotide.
[2] = molecular target: T2, Methionyl-tRNA synthetase, putative (Trypanosoma brucei brucei, UniProt Q38C91); assay type: functional, Trypanosoma brucei brucei strain 927/4 GUTat10.1
T2 sequence (Q38C91 whole entry): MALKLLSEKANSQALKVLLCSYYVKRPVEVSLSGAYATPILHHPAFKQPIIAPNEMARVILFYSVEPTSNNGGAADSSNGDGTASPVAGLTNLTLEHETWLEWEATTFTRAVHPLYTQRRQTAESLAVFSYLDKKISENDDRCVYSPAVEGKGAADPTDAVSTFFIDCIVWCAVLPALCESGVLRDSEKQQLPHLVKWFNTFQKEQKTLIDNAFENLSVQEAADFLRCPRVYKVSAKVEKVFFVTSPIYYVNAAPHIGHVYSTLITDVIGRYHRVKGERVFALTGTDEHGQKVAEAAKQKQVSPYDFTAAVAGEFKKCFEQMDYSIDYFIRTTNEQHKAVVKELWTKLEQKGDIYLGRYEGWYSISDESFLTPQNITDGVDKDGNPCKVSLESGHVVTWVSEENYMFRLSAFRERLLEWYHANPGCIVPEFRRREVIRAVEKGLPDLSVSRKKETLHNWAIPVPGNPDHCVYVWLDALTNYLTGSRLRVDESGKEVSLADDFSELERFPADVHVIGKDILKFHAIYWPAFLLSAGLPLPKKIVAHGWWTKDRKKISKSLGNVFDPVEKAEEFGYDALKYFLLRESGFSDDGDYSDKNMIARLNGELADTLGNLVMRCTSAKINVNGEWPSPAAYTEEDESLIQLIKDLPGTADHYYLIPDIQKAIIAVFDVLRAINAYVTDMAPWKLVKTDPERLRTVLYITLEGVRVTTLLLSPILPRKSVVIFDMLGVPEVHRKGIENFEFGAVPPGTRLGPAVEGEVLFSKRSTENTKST

[3] = molecular target: T2, Methionyl-tRNA synthetase, putative; assay type: functional, Trypanosoma brucei brucei strain 927/4 GUTat10.1; remark: listed apart in the source
[4] = molecular target: T3, Replicative DNA helicase DnaB (Mycobacterium tuberculosis, UniProt P9WMR3); assay: DnaB intein splicing inhibitors, dose response, biochemical, cell-free fluorescence (AID 449749); assay type: functional
T3 sequence (P9WMR3 whole entry): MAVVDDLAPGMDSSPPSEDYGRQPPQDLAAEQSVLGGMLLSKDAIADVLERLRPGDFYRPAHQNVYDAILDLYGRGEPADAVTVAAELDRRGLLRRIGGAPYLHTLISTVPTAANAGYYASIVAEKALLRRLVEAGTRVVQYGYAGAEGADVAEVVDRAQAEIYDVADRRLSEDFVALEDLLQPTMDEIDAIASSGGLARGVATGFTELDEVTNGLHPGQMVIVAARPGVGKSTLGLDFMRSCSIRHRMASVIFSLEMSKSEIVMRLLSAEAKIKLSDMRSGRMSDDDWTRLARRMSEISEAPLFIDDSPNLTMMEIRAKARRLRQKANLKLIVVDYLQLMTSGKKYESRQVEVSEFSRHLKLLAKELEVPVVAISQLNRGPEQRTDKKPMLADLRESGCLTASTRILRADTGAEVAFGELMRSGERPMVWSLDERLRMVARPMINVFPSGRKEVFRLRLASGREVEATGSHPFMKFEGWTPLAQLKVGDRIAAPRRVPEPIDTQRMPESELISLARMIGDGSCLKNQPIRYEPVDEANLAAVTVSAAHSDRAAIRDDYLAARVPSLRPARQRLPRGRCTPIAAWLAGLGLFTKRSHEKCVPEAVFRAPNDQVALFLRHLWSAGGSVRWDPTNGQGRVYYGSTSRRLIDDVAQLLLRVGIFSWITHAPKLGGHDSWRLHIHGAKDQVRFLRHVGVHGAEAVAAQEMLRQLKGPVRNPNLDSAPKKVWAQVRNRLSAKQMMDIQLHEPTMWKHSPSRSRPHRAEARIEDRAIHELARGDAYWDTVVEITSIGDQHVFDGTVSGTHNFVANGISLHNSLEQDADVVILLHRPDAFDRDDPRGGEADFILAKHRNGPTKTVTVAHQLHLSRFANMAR

[5] = molecular target: Transitional endoplasmic reticulum ATPase (Homo sapiens, UniProt P55072); assay: p97 ATPase inhibitors, dose response, biochemical (AID 1534)
[6] = molecular target: T4, Heat shock factor protein 1 (Mus musculus, UniProt P38532); assay: enhancement of HSF1-driven luciferase signal – cell-based, NIH3T3, luminescence, dose retest, confirmation (AID 435004); assay type: functional;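 note: stress induced by proteasome inhibitor MG132 added 30 min after compound; luciferase reporter driven by HSF1 response element in NIH3T3 cells; actives raise luminescence as potentiators of the MG132 stress response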
T4 sequence (P38532 whole entry): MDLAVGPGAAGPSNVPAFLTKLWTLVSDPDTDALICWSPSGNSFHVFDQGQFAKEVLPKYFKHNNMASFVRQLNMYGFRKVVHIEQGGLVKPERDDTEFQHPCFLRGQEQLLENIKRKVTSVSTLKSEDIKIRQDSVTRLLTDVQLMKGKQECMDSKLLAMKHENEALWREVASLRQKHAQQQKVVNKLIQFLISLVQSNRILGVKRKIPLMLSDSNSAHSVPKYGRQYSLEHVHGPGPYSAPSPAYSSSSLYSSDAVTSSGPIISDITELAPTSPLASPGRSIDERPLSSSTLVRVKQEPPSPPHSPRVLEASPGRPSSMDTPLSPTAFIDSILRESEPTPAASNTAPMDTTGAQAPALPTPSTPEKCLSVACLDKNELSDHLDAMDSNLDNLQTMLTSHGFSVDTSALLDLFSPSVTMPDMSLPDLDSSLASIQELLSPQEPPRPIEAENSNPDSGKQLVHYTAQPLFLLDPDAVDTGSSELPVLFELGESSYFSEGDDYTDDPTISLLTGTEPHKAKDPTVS

[7] = molecular target: Transitional endoplasmic reticulum ATPase (Homo sapiens, UniProt P55072, C522A); assay: C522A mutant p97 ATPase inhibitors, dose response, counter-screen for p97 inhibitor project, biochemical, luminescence (AID 1544)
[8] = molecular target: Ras and Rab interactor 1/Tyrosine-protein kinase ABL1 (Homo sapiens, UniProt P00519+Q13671); assay type: functional;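 note: biochemical TR-FRET dose-response test measuring inhibition of binding between Rin1 and Abl proteins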
[9] = Counterscreen for inhibitors of Trypanosoma brucei methionyl tRNA synthetase (MetRS): Luminescence-based cell-based high throughput dose response assay to identify compounds that are cytotoxic to Jurkat human T lymphocyte cells.; assay type: functional
[10] = molecular target: Tyrosyl-DNA phosphodiesterase 2 (Homo sapiens, UniProt O95551); assay: potency against TDP2 phosphodiesterase activity – biochemical, epi absorbance, IC50, dose response (AID 743297)
Procathepsin L = Procathepsin L (Homo sapiens, UniProt P07711)
Aspartyl aminopeptidase = Aspartyl aminopeptidase (Plasmodium falciparum 3D7, UniProt Q8I2J3)
[11] = molecular target: T5, Photoreceptor-specific nuclear receptor (Homo sapiens, UniProt Q9Y5X4); assay type: functional
[12] = molecular target: Peroxisome proliferator-activated receptor gamma/Nuclear receptor corepressor 2 (Homo sapiens, UniProt P37231+Q9Y618); assay type: functional
[13] = molecular target: Eukaryotic translation initiation factor 4H (Homo sapiens, UniProt Q15056); assay: eIF4H binding inhibition – biochemical, uHTS, fluorescence polarization, translation initiation inhibitor project, primary screen (AID 2012)
[14] = molecular target: Polyadenylate-binding protein 1 (Homo sapiens, UniProt P11940); assay: blockers of PABP interaction with poly(A) – biochemical, fluorescence polarization, […] (AID 2014)
[15] = viability loss in HEK293T cells – cell-based, cherry-picks, cytotoxicity control for HIV Vif inhibitor project, dose response (AID 652208); assay type: functional
Wee1-like protein kinase = Wee1-like protein kinase (Homo sapiens, UniProt P30291); assay: HeLa cell cycle G2/M accumulation – FACS, mechanism study for Wee1 degradation inhibitor project, late-stage follow-up, panel member Wee1 Degradation (AID 2088)
[16] = molecular target: T5, Photoreceptor-specific nuclear receptor; assay type: functional, cell-based
[17] = molecular target: G2/mitotic-specific cyclin-B1 (Homo sapiens, UniProt P14635); assay: HeLa cell cycle G2/M accumulation – FACS, mechanism study for Wee1 degradation inhibitor project, late-stage follow-up, panel member Cyclin B Degradation (AID 2088)
[18] = molecular target: Signal transducer and activator of transcription 3 (Homo sapiens, UniProt P40763); assay: STAT3 activation with BCL3 mRNA and toxicity – cell-based, […], BCL3 qPCR, cytotoxicity, late-stage follow-up, panel member STAT3 Activation (AID 2049)
Signal transducer and activator of transcription 3, sequence (P40763 whole entry): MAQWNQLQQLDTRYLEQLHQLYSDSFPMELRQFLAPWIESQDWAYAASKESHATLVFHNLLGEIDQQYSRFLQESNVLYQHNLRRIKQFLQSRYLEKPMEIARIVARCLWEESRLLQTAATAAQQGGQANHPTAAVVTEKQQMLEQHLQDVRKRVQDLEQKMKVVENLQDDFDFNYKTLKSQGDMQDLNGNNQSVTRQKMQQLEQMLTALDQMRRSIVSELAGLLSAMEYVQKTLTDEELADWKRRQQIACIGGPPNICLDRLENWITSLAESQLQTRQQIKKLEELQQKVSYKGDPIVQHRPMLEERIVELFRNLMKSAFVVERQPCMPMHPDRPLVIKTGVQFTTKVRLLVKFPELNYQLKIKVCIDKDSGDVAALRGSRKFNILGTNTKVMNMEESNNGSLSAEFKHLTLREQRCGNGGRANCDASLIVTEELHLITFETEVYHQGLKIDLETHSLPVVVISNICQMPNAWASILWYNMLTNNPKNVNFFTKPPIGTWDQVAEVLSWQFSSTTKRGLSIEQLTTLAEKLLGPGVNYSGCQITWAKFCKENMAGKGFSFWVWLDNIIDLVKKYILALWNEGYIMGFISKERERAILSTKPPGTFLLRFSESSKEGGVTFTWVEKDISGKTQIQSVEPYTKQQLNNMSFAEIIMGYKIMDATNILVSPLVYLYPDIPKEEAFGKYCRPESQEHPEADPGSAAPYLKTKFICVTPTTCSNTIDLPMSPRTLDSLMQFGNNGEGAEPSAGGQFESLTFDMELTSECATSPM

T5 sequence (Q9Y5X4 whole entry): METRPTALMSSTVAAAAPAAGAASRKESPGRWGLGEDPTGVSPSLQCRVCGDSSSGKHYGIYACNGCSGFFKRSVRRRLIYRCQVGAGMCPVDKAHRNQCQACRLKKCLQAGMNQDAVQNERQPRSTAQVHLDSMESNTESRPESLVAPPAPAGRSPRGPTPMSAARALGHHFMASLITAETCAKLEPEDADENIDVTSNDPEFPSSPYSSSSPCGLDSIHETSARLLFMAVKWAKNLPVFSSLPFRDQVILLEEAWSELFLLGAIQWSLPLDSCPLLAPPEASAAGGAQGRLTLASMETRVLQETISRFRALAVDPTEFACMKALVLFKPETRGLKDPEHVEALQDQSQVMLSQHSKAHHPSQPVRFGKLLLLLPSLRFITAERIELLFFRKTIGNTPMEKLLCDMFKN
G2/mitotic-specific cyclin-B1, sequence (P14635 whole entry): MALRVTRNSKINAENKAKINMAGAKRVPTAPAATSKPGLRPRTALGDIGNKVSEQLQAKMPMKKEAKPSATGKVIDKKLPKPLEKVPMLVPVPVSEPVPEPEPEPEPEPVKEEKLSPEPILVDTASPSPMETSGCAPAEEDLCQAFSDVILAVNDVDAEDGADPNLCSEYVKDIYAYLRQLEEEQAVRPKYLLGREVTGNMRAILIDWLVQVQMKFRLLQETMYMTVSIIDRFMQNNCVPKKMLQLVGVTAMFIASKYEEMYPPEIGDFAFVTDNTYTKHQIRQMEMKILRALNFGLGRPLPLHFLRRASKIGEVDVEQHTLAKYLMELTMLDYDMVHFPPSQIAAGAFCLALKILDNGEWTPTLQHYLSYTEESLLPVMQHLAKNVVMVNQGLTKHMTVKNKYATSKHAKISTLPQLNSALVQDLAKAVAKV
Transitional endoplasmic reticulum ATPase (Homo sapiens, UniProt P55072), sequence (P55072 whole entry): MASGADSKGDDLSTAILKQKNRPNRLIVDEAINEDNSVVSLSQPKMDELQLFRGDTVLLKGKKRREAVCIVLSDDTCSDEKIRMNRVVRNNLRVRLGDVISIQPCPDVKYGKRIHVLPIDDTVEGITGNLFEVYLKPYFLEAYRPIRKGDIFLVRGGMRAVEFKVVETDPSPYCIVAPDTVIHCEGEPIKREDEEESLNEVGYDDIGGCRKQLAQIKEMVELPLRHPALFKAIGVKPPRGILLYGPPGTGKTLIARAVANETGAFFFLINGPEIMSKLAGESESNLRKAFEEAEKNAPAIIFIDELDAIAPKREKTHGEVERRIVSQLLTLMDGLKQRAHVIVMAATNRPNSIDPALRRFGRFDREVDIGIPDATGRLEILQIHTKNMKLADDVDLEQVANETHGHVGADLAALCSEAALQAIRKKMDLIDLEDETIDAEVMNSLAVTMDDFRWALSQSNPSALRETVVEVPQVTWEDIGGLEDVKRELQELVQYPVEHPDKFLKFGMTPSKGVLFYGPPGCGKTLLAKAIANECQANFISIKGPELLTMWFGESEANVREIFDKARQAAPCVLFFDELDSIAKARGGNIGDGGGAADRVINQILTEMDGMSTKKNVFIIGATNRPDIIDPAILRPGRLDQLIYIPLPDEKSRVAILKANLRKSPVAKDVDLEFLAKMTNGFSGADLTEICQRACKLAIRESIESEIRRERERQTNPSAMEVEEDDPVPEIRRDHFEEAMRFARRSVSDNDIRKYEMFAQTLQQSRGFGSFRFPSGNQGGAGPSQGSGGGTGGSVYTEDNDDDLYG
Procathepsin L, sequence (P07711 whole entry): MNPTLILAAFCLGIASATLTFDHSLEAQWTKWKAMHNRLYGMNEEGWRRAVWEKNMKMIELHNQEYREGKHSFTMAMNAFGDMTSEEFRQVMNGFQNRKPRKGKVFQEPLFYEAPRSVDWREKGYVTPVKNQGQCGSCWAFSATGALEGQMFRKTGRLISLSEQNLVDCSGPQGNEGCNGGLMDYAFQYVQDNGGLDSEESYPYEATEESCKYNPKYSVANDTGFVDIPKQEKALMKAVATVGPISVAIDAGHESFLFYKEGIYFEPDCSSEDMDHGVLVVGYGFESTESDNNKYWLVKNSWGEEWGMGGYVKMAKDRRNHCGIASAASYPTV
Wee1-like protein kinase, sequence (P30291 whole entry): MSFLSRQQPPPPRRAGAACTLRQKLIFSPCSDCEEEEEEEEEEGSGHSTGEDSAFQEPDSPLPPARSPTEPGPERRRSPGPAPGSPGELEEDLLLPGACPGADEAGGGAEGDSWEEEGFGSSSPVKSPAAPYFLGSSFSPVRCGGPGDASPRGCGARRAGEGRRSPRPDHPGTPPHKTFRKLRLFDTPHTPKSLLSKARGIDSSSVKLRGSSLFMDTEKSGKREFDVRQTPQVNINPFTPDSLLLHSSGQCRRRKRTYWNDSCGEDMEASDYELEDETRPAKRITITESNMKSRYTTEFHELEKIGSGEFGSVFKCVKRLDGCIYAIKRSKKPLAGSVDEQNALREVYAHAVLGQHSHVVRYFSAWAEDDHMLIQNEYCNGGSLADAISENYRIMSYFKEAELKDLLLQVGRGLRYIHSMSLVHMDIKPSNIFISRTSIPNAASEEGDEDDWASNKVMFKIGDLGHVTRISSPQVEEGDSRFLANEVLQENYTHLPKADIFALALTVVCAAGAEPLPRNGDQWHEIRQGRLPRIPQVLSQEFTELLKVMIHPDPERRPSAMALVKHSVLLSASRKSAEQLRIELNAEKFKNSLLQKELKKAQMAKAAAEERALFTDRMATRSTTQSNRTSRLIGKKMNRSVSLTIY
Aspartyl aminopeptidase, sequence (Q8I2J3 whole entry): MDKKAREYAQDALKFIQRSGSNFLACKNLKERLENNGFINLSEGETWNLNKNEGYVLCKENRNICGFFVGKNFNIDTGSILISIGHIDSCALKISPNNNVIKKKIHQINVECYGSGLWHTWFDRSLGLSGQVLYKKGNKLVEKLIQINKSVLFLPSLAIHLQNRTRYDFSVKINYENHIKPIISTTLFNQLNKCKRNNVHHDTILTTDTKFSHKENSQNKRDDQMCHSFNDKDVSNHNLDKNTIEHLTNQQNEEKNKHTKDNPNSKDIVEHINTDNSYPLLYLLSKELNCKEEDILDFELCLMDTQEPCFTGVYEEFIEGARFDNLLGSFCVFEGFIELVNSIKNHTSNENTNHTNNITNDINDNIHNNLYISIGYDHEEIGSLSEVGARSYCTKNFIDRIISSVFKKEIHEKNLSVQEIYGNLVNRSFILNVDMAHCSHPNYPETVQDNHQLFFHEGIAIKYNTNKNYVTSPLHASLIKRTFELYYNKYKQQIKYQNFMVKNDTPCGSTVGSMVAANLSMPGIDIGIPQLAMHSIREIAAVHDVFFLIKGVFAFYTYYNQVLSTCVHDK
E3 ubiquitin-protein ligase UHRF1, sequence (Q96T88 whole entry, the tested form may be a part): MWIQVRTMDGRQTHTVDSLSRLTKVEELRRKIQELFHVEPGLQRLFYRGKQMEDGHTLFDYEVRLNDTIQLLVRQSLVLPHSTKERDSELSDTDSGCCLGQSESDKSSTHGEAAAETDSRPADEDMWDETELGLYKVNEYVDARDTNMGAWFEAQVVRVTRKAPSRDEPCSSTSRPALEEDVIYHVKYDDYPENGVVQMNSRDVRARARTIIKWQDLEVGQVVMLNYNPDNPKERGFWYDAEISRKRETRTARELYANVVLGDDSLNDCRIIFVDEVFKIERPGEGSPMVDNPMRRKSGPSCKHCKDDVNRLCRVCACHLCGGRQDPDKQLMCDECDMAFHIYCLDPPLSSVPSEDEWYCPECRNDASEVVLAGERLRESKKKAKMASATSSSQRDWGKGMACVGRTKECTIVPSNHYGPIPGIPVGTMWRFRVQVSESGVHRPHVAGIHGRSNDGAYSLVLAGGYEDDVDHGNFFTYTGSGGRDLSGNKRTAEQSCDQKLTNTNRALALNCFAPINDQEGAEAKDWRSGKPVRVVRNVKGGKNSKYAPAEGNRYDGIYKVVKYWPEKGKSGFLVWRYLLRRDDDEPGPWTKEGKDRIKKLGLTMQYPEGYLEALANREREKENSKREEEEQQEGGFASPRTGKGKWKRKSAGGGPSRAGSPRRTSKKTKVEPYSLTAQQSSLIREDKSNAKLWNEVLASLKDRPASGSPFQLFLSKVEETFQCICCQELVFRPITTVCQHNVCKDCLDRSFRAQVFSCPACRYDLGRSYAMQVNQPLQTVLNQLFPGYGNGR

## O=S(=O)(Nc1cc2nc3ccccc3nc2n1Cc1ccccc1)c1ccc(Cl)cc1
Protein RecA
  EC50: 1.5 µM (active)
[1]
  IC50: > 43.8 µM (inactive)
[2]
  IC50: 4.93 µM (active)
[3]
  IC50: 2.46 µM (active)
[4]
  AC50: 10.1 µM (active)
[5]
  IC50: > 50 µM (not active)
[6]
  EC50: > 260 µM (inactive)
[7]
  IC50: > 50 µM (not active)
[8]
  IC50: > 73.5 µM (inactive)
[9]
  IC50: 28.8 µM (inactive)
[10]
  IC50: > 14.3 µM (inactive)

## O=C(NC(=S)Nn1cnnc1)c1ccccc1Br
Procathepsin L
  IC50: > 59.6 µM (not active)
Aspartyl aminopeptidase
  IC50: 1.5 µM (active)

## O=C(C1=C(O)C(=O)N(CC2CCCO2)C1c1ccc(Cl)cc1Cl)c1ccco1 (configuration not stated)
[11]
  IC50: > 39.8 µM (not active)
[12]
  IC50: 13.7 µM (not active)

## CCN(CC)CCCN=C1N[C@@H](c2ccccc2)C(C(=O)OC)=C(C)N1CC
[13]
  IC50: > 100 µM (inactive)
[14]
  IC50: 10.6 µM (active)

## Cc1ccnc(NC(=O)CCCOc2cc(=O)n(C)c3ccccc23)c1
[15]
  AC50: > 52 µM (inactive)
Wee1-like protein kinase
  EC50: > 6.19 µM (active)
[16]
  IC50: 2.97 µM (active)
[17]
  EC50: > 55.7 µM (inactive)

## COc1cc(OC)c(NC(=O)c2cc(CN3CCCC3)on2)cc1Cl
[18]
  EC50: > 55.7 µM (inactive)
